Measurements published in PubChem BioAssay AID256 (DTP/NCI, 2004).
Several values for one entry are separate records, joined by “and”; a condition that tells them apart may be missing. Equal entries are not always repeated. Toxic doses and inconclusive results are not listed. Rule for the calls: active = survival T/C of 150% or more; inactive = T/C below 125% in these data.

System: CD2F1 mice, L1210 leukemia ip, survival T/C
Assay: NCI In Vivo Anticancer Drug Screen. Data for tumor model L1210 Leukemia (intraperitoneal) in CD2F1 (CDF1) mice
Conditions: higher = longer survival
Summary of the method: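 Implant tumor; dose compound or vehicle; measure endpoint in both groups; report treated divided by control.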

[1] = endpoint: mean survival time, dose: 100.0 mg/kg/injection, schedule: Q01DX009 (ip), vehicle: saline with Tween-80
[2] = endpoint: mean survival time, dose: 100.0 mg/kg/injection, schedule: Q04DX002 (ip), vehicle: saline with Tween-80
[3] = endpoint: mean survival time, dose: 100.0 mg/kg/injection, schedule: Q04DX003 (ip), vehicle: saline with Tween-80
[4] = endpoint: mean survival time, dose: 200.0 mg/kg/injection, schedule: Q01DX009 (ip), vehicle: saline with Tween-80
[5] = endpoint: mean survival time, dose: 200.0 mg/kg/injection, schedule: Q04DX002 (ip), vehicle: saline with Tween-80
[6] = endpoint: mean survival time, dose: 200.0 mg/kg/injection, schedule: Q04DX003 (ip), vehicle: saline with Tween-80
[7] = endpoint: mean survival time, dose: 400.0 mg/kg/injection, schedule: Q01DX009 (ip), vehicle: saline with Tween-80
[8] = endpoint: mean survival time, dose: 400.0 mg/kg/injection, schedule: Q04DX002 (ip), vehicle: saline with Tween-80
[9] = endpoint: mean survival time, dose: 50.0 mg/kg/injection, schedule: Q01DX009 (ip), vehicle: saline with Tween-80

Measured: T/C

CCC1(C)C(=O)c2ccccc2N(C)C1=O (configuration not stated)
inactive: endpoint: mean survival time, dose: 100.0 mg/kg/injection, schedule: Q01DX001 (ip), vehicle: saline with Tween-80 95 % of control | [1] 93 % of control | [2] 103 % of control and 106 % of control | [3] 97 % of control | endpoint: mean survival time, dose: 200.0 mg/kg/injection, schedule: Q01DX001 (ip), vehicle: saline with Tween-80 100 % of control | [4] 93 % of control and 102 % of control | [5] 104 % of control and 110 % of control | [6] 100 % of control | endpoint: mean survival time, dose: 400.0 mg/kg/injection, schedule: Q01DX001 (ip), vehicle: saline with Tween-80 95 % of control | [7] 101 % of control and 102 % of control | [8] 109 % of control and 110 % of control | endpoint: mean survival time, dose: 400.0 mg/kg/injection, schedule: Q04DX003 (ip), vehicle: saline with Tween-80 100 % of control

O=C(/C(=N\N=C\c1c(O)ccc2ccccc12)c1ccccc1)c1ccccc1
inactive: [1] 93 % of control | [4] 90 % of control | [7] 92 % of control

C[N+](C)(C)CC(O)c1ccccc1 (configuration not stated)
inactive: [9] 100 % of control | [1] 105 % of control | [3] 95 % of control | [6] 87 % of control

C=CCSc1nc(N)nc2nc[nH]c12
inactive: endpoint: mean survival time, dose: 100.0 mg/kg/injection, schedule: Q04DX003 (ip), vehicle: saline sonified 107 % of control | endpoint: mean survival time, dose: 200.0 mg/kg/injection, schedule: Q04DX003 (ip), vehicle: saline sonified 96 % of control

Cc1cc(=O)n(C2CCCCC2)c(=NC2CCCCC2)o1
inactive: [2] 100 % of control | [5] 95 % of control | [8] 95 % of control

CN1CCC(CN2c3ccccc3Sc3ccccc32)C1 (configuration not stated)
inactive: endpoint: mean survival time, dose: 12.5 mg/kg/injection, schedule: Q01DX009 (ip), vehicle: saline with Tween-80 107 % of control | endpoint: mean survival time, dose: 25.0 mg/kg/injection, schedule: Q01DX009 (ip), vehicle: saline with Tween-80 102 % of control | [9] 123 % of control

Cc1cc(NCCCCCCCCNc2cc(C)nc3cc(N(C)C)ccc23)c2ccc(N(C)C)cc2n1
inactive: endpoint: median survival time, dose: 1.57 mg/kg/injection, schedule: Q01DX009 (ip), vehicle: distilled water + Tween-80 + alcohol 108 % of control | endpoint: median survival time, dose: 3.12 mg/kg/injection, schedule: Q01DX009 (ip), vehicle: distilled water + Tween-80 + alcohol 118 % of control | endpoint: median survival time, dose: 3.12 mg/kg/injection, schedule: Q01DX009 (ip), vehicle: distilled water + Tween-80 115 % of control | endpoint: median survival time, dose: 6.25 mg/kg/injection, schedule: Q01DX009 (ip), vehicle: distilled water + Tween-80 123 % of control | endpoint: median survival time, dose: 12.5 mg/kg/injection, schedule: Q01DX009 (ip), vehicle: distilled water + Tween-80 123 % of control
